{"source": "patent US20060094722A1", "about": "(Eisai Co., Ltd., priority 2002, published 2006)", "note": "Structures can show the parent of a compound that is named as a salt.", "data": [{"target": "T1, DPPIV obtained from swine kidney (Sus scrofa, UniProt P22411)", "T1 construct": "DPPIV obtained from swine kidney; from tissue; host or cells: swine kidney", "T1 sequence (P22411 whole entry)": "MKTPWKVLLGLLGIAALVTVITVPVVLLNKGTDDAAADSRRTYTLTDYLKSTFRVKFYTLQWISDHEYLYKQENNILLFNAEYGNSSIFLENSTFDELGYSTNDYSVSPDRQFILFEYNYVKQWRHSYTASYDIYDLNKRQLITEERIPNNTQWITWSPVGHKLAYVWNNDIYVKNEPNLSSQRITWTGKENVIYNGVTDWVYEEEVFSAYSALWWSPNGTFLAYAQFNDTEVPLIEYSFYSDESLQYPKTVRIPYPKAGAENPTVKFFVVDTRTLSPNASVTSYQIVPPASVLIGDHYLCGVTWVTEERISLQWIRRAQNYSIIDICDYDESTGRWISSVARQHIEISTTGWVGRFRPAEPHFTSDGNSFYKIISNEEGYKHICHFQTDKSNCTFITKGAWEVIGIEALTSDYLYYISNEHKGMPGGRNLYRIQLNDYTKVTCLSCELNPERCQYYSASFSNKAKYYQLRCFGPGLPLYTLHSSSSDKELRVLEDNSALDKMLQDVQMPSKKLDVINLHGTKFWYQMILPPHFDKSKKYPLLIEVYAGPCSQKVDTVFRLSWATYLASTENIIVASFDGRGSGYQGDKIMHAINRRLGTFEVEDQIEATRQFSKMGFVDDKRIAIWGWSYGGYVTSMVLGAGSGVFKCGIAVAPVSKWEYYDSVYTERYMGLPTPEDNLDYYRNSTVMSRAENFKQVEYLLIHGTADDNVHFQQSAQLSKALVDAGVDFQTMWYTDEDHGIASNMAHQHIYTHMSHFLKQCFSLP", "test": "Assay for the DPPIV-inhibiting activity", "assay_type": "biochemical", "details": "DPPIV 10 mU/mL; Gly-Pro-p-nitroanilide 0.33 mM; absorbance 405 nm; read-out: IC50", "experimental": "(§1) DPPIV obtained from swine kidney was dissolved in a reaction buffer (50 mM Tris-HCl (pH 7.4)/0.1% BSA) at a fmal concentration of 10 mU/mL. A 110 μL aliquot of this enzyme solution was added to the reaction system, and then 15 μL of an agent was added. The reaction solution was incubated at room temperature for 20 minutes. 25 μL of a solution containing 2 mM Gly-Pro-p-nitroanilide was added to the reaction solution (at the final concentration of 0.33 mM) to start the enzyme reaction. The reaction time was 20 minutes. 25 μL of 1N phosphate solution was added to stop the reaction. […] The degree of inhibition to the enzyme reaction was determined, and IC50 was computed based on the absorbance.", "units": {"IC50": "nM"}, "values": [{"smiles": "CC#CCn1c(N2CCNCC2)nc2c1c(=O)n(C)c(=O)n2CC(=O)OC", "note": "[Example 398, Methyl[7-(2-butynyl)-1-methyl-2,6-dioxo-8-(piperazin-1-yl)-1,2,6,7-tetrahydropurin-3-yl]acetate trifluoroacetate]", "IC50": 237}, {"smiles": "CC#CCn1c(N2CCNCC2)nc2c1c(=O)n(C)c(=O)n2C(C)C", "note": "[Example 408, 7-(2-Butynyl)-3-isopropyl-1-methyl-8-(piperazin-1-yl)-3,7-dihydropurine-2,6-dione trifluoroacetate]", "IC50": 340}, {"smiles": "CC#CCn1c(N2CCNCC2)nc2c1c(=O)n(CC(=O)OC)c(=O)n2C", "note": "[Example 355, Methyl[7-(2-butynyl)-3-methyl-2,6-dioxo-8-(piperazin-1-yl)-2,3,6,7-tetrahydropurin-1-yl]acetate trifluoroacetate]", "IC50": 147}, {"smiles": "CC#CCn1c(N2CCNCC2)nc2c1c(=O)n(C)c(=O)n2C(C)C(=O)OCC", "note": "(stereo not drawn) [Example 405, Ethyl 2-[7-(2-butynyl)-1-methyl-2,6-dioxo-8-(piperazin-1-yl)-1,2,6,7-tetrahydropurin-3-yl]propionate trifluoroacetate]", "IC50": 359}, {"smiles": "CC#CCn1c(N2CCNCC2)nc2c1c(=O)n(C)c(=O)n2CC(=O)c1ccccc1", "note": "[Example 404, 7-(2-Butynyl)-3-(2-oxo-2-phenethyl)-1-methyl-8-(piperazin-1-yl)-3,7-dihydropurine-2,6-dione trifluoroacetate]", "IC50": 276}, {"smiles": "CC#CCn1c(N2CCNCC2)nc2nc(SCC(=O)O)n(C)c(=O)c21", "note": "[Example 79, [7-(2-Butynyl)-1-methyl-6-oxo-8-(piperazin-1-yl)-6,7-dihydro-1H-purin-2-ylsulfanyl]acetic acid trifluoroacetate]", "IC50": 35.7}, {"smiles": "CC#CCn1c(N2CCNCC2)nc2ccn(CC(=O)c3ccccc3)c(=O)c21", "note": "[Example 341, 3-(2-Butynyl)-5-(2-oxo-2-phenylethyl)-2-(piperazin-1-yl)-3,5-dihydroimidazo[4,5-c]pyridin-4-one trifluoroacetate]", "IC50": 7.32}, {"smiles": "CC#CCn1c(N2CCNCC2)nc2c1c(=O)n(CC(=O)c1ccccc1)c(=O)n2CC(=O)OC", "note": "[Example 415, Methyl[7-(2-butynyl)-2,6-dioxo-1-(2-oxo-2-phenylethyl)-8-(pipierazin-1-yl)-1,2,6,7-tetrahydropurin-3-yl]acetate trifluoroacetate]", "IC50": 1.81}, {"smiles": "CC#CCn1c(N2CCNCC2)nc2nc(OC3(C(=O)OCC)CC3)n(C)c(=O)c21", "note": "[Example 16]", "IC50": 272}, {"smiles": "CC#CCn1c(N2CCNCC2)nc2c1c(=O)n(C)c(=O)n2CC1CCCO1", "note": "(stereo not drawn) [Example 400, 7-(2-Butynyl)-3-(2-tetrahydrofuranyl)methyl-1-methyl-8-(piperazin-1-yl)-3,7-dihydropurine-2,6-dione trifluoroacetate]", "IC50": 183}, {"smiles": "CC#CCn1c(N2CCNCC2)nc2nc(OC(C)C(=O)OCC)n(C)c(=O)c21", "note": "(stereo not drawn) [Example 9, Ethyl 2-[7-(2-butynyl)-1-methyl-6-oxo-8-(piperazin-1-yl)-6,7-dihydro-1H-purin-2-yloxy]propionate]", "IC50": 141}, {"smiles": "CC#CCn1c(N2CCNCC2)nc2c1c(=O)n(C)c(=O)n2C1CCNC1=O", "note": "(stereo not drawn) [Example 410, 7-(2-Butynyl)-1-methyl-3-(2-oxopyrrolidin-3-yl)-8-(piperazin-1-yl)-3,7-dihydropurine-2,6-dione hydrochloride]", "IC50": 64.9}, {"smiles": "CC#CCn1c(N2CCNCC2)nc2nc(OCC)n(C)c(=O)c21", "note": "[Example 12, 7-(2-Butynyl)-2-ethoxy-1-methyl-8-(piperazin-1-yl)-1,7-dihydropurin-6-one]", "IC50": 183}, {"smiles": "CC#CCn1c(N2CCNCC2)nc2c1c(=O)n(C)c(=O)n2CC(=O)C(C)(C)C", "note": "[Example 409, 7-(2-Butynyl)-3-(3,3-dimethyl-2-oxobutyl)-1-methyl-8-(piperazin-1-yl)-3,7-dihydropurine-2,6-dione trifluoroacetate]", "IC50": 222}, {"smiles": "CC#CCn1c(N2CCNCC2)nc2cnn(C)c(=O)c21", "note": "[Example 115, 3-(2-Butynyl)-5-methyl-2-(piperazin-1-yl)-3,5-dihydroimidazo[4,5-d]pyridazin-4-one trifluoroacetate]", "IC50": 185}, {"smiles": "CC#CCn1c(N2CCNCC2)nc2c1c(=O)n(C)c(=O)n2CCOCC", "note": "[Example 407, 7-(2-Butynyl)-3-(2-ethoxyethyl)-1-methyl-8-(piperazin-1-yl)-3,7-dihydropurine-2,6-dione trifluoroacetate]", "IC50": 275}, {"smiles": "CC#CCn1c(N2CCNCC2)nc2nc(OCC(=O)OCC)n(C)c(=O)c21", "note": "[Example 13, Ethyl[7-(2-butynyl)-1-methyl-6-oxo-8-(piperazin-1-yl)-6,7-dihydro-1H-purin-2-yloxy]acetate]", "IC50": 125}]}, {"target": "T1, DPPIV obtained from swine kidney", "test": "Assay for the DPPIV-inhibiting activity", "assay_type": "biochemical", "details": "IC50 (nM), DPPIV 10 mU/mL; Gly-Pro-p-nitroanilide 0.33 mM; absorbance 405 nm", "experimental": "as §1", "units": {"IC50": "nM"}, "values": [{"smiles": "CC#CCn1c(=O)c2c(nc(N3CCNCC3)n2CC#CC)n(C)c1=O", "note": "[Example 358, 1,7-bis(2-Butynyl)-3-methyl-8-(piperazin-1-yl)-3,7-dihydropurine-2,6-dione trifluoroacetate]", "IC50": 357}, {"smiles": "CC#CCn1c(N2CCNCC2)nc2c1c(=O)n(CCc1ccccc1)c(=O)n2C", "note": "[Example 367, 7-(2-Butynyl)-3-methyl-1-(2-phenylethyl)-8-(piperazin-1-yl)-3,7-dihydropurine-2,6-dione trifluoroacetate]", "IC50": 4.56}, {"smiles": "CC#CCn1c(N2CCNCC2)nc2c1c(=O)n(CCc1ccccc1)c(=O)n2CC(=O)OCC", "note": "[Example 416, Ethyl[7-(2-butynyl)-2,6-dioxo-1-(2-phenethyl)-8-(piperazin-1-yl)-1,2,6,7-tetrahydropurin-3-yl]acetate hydrochloride]", "IC50": 4.02}, {"smiles": "CC#CCn1c(N2CCNCC2)nc2c1c(=O)n(CCc1ccccc1)c(=O)n2CC(=O)NC", "note": "[Example 419, 2-[7-(2-Butynyl)-2,6-dioxo-1-(2-phenethyl)-8-(piperazin-1-yl)-1,2,6,7-tetrahydropurin-3-yl]-N-methylacetamide hydrochloride]", "IC50": 1.55}, {"smiles": "CC#CCn1c(N2CCNCC2)nc2c1c(=O)n(CCc1ccccc1)c(=O)n2CC(=O)N1CCCC1", "note": "[Example 418, 7-(2-Butynyl)-3-[2-oxo-2-(pyrrolidin-1-yl)ethyl]-1-(2-phenethyl)-8-(piperazin-1-yl)-3,7-dihydro purine-2,6-dione hydrochloride]", "IC50": 1.14}, {"smiles": "CC#CCn1c(N2CCNCC2)nc2c1c(=O)[nH]c(=O)n2C", "note": "[Example 354, 7-(2-Butynyl)-3-methyl-8-(piperazin-1-yl)-3,7-dihydropurine-2,6-dione]", "IC50": 285}, {"smiles": "C#CCn1c(=O)c2c(nc(N3CCNCC3)n2CC#CC)n(C)c1=O", "note": "[Example 357, 7-(2-Butynyl)-3-methyl-8-(piperazin-1-yl)-1-(2-propynyl)-3,7-dihydropurine-2,6-dione trifluoroacetate]", "IC50": 323}, {"smiles": "CC#CCn1c(N2CCNCC2)nc2c1c(=O)n(CC#N)c(=O)n2C", "note": "[Example 359, [7-(2-Butynyl)-3-methyl-2,6-dioxo-8-(piperazin-1-yl)-2,3,6,7-tetrahydropurin-1-yl]acetonitrile trifluoroacetate]", "IC50": 353}, {"smiles": "CC#CCn1c(N2CCNCC2)nc2c1c(=O)n(C)c(=O)n2CCC", "note": "[Example 403, 7-(2-Butynyl)-3-propyl-1-methyl-8-(piperazin-1-yl)-3,7-dihydropurine-2,6-dione trifluoroacetate]", "IC50": 266}, {"smiles": "CC#CCn1c(N2CCNCC2)nc2c1c(=O)n(C)c(=O)n2CC", "note": "[Example 396, 7-(2-Butynyl)-3-ethyl-1-methyl-8-(piperazin-1-yl)-3,7-dihydropurine-2,6-dione trifluoroacetate]", "IC50": 197}]}]}
